Values quoted from earlier work as cited in patent publication US8029830B2, “Composition and method for promoting internal health and external appearance” (Nuvocare Health Services Inc., priority 2008, dated 2011).
Where two headings read alike, the source gives them in different places.

Key:
[1] = in vitro
macrophage cultures = settings: impairment induced by phorbol esters
thymocytes = settings: irradiated (6 Gy)
[2] = test system: rat model of diabetic neuropathy; settings: intraperitoneal treatment for 2 weeks
[3] = test system: human plasma, blood platelets and lymphocytes
healthy human volunteers = settings: at the end of the treatment period
pigs = settings: pretreatment; hyperbaric oxygen (HBO)
rat kidney fibroblasts = settings: UVA light
healthy volunteers = settings: daily oral, 8 weeks
[4] = test system: persons with type 2 diabetes mellitus
male subjects = settings: cycling capacity
[5] = 28 days of supplementation
sedentary human subjects = settings: for body fat percentage, body fat mass and lean body mass: oral ingestion for 12 weeks
mice = settings: topical application
rats = settings: rat, in vivo
[6] = test system: lean volunteers and post-obese subjects
[7] = human, in vivo
older and younger women = settings: following caffeine ingestion

## CC[C@H](CC[C@@H](C)[C@H]1CC[C@H]2[C@@H]3CC=C4C[C@@H](O)CC[C@]4(C)[C@H]3CC[C@]12C)C(C)C [beta-sitosterol]
[1]
  radical scavenging: modest radical scavenger
Macrophage cultures
  glutathione/oxidized glutathione ratio: reverts the impairment
thymocytes
  activities of antioxidant enzymes (SOD, CAT, GPx): increasing
  intracellular reactive oxygen species (ROS): attenuating
  irradiation-induced cell death and nuclear DNA strand breaks: decreased

## Oc1ccc(C=Cc2cc(O)cc(O)c2)cc1 [resveratrol]
[2]
  pathologies associated with diabetic neuropathy: protective effects
[3]; after incubation with platinum compounds
  oxidative stress levels in plasma: distinct reduction
[3]; control blood platelets and platelets treated with platinum compounds
  biomarker of lipid peroxidation: decreased the production
[3]; lymphocytes, vs platinum compounds without resveratrol
  DNA damage (measured by comet assay): significant decrease

## vitamin E
Healthy human volunteers
  decrease of urine lipid peroxidation products: 27%

## superoxide dismutase
pigs
  DNA strand-break damage: protected against DNA strand-break damage

## CC1=C(/C=C/C(C)=C/C=C/C(C)=C/C=C/C=C(C)/C=C/C=C(C)/C=C/C2=C(C)C(=O)[C@@H](O)CC2(C)C)C(C)(C)C[C@H](O)C1=O [astaxanthin]
Healthy subjects; during supplementation
  plasma 12- and 15-hydroxy fatty acids: reduced significantly
Healthy subjects; in vivo
  plasma astaxanthin levels: significantly elevated
  tolerability: well tolerated
Rat kidney fibroblasts
  indices of oxidative stress (CAT, SOD activities, TBARS): inhibit these indices of oxidative stress
  protective properties compared to beta-carotene and lutein: superior protective properties
middle-aged women; oral delivery, after 6 weeks
  improvement in skin-surface-moisture: 52%
  reduction in wrinkles: 54%
middle-aged women; six weeks, instrumentation and dermatologist's review
  fine lines and wrinkles, elasticity and moisture content: significant improvements

## [Zn] [zinc]
Healthy volunteers
  plasma levels of lipid peroxidation products and DNA adducts: decreased
[4]; after six months
  decrease of plasma TBARS: 15%
[4]; after three and six months of supplementation, all subjects
  plasma zinc values: greater than 10.7 micro mol/L

## NCCC(=O)O [beta-alanine]
Women subjects; 4 weeks, submaximal workloads
  onset of neuromuscular fatigue and ventilatory threshold: delayed
Women subjects; maximal cycle ergometry performance
  time-to-exhaustion: increased
Male subjects
  muscle carnosine level and total work done: significant muscle carnosine level increases, as well as an increase in total work done
[5]
  increase in PWCFT: 14.5%
Vastus lateralis
  muscle carnosine levels: significant increases

## C=C[C@@]1(C)CC(=O)[C@]2(O)[C@@]3(C)[C@@H](O)CCC(C)(C)[C@@H]3[C@H](O)[C@H](OC(C)=O)[C@@]2(C)O1 [forskholin]
Sedentary human subjects; in the course of the study
  lean body mass gained, on average: 8.2 pounds
Sedentary human subjects
  body fat percentage, body fat mass and lean body mass: significantly decrease body fat percentage while increasing lean body mass
Sedentary human subjects; listed as forkohlin
  body fat percentage, body fat mass and lean body mass: decreasing body fat percentage and body fat mass

## epigallocatechin-3-gallate [EGCG]
mice
  UVB-induced skin tumor development: prevents UVB-induced skin tumor development

## Cn1c(=O)c2c(ncn2C)n(C)c1=O [caffeine]
rats
  neurodegeneration: protective effects
[6]; in vivo
  subsequent 12-h night EE: no influence
[6]; lean volunteers
  increase in daily EE: 150 kcal
[6]; post-obese subjects
  increase in daily EE: 79 kcal
[6]; repeated administration at 2-hour intervals over a 12-hour day period, two subject groups
  increase of energy expenditure (EE): 8-11%
[7]
  energy expenditure: increased energy expenditure dose dependently
Older and younger women
  energy expenditure: increased energy expenditure significantly
